This is an account of results in PubChem BioAssay AID330 (DTP/NCI, 2004).

The assay has as its system P388 leukemia ip, CD2F1 mice, survival T/C. Description: NCI In Vivo Anticancer Drug Screen. Data for tumor model P388 Leukemia (intraperitoneal) in CD2F1 (CDF1) mice. The conditions noted are these: endpoint: median survival time, higher = longer survival. The gist of the method:
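Mice carrying the transplanted tumor received test compound or vehicle. Survival was recorded in each group, and the value is the treated-group measurement divided by that of the vehicle-treated control group.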

Setting [1] is: dose: 50.0 mg/kg/injection, schedule: Q01DX005 (ip), vehicle: saline.
Where [2] appears, read: dose: 100.0 mg/kg/injection, schedule: Q01DX005 (ip), vehicle: saline.
[3] abbreviates: dose: 100.0 mg/kg/injection, schedule: Q04DX003 (ip), vehicle: saline with Tween-80.
[4] abbreviates: dose: 200.0 mg/kg/injection, schedule: Q04DX003 (ip), vehicle: saline with Tween-80.
Where [5] appears, read: dose: 400.0 mg/kg/injection, schedule: Q04DX003 (ip), vehicle: saline with Tween-80.

Toxic doses and inconclusive results are not listed.

Consider `COc1ccc2[nH]c3cc4ccncc4cc3c2c1`, for which the T/C is 122 % of control (dose: 25.0 mg/kg/injection, schedule: Q04DX002 (ip), vehicle: saline with Tween-80); 97 % of control (dose: 50.0 mg/kg/injection, schedule: Q04DX002 (ip), vehicle: saline with Tween-80); 95 % of control (dose: 100.0 mg/kg/injection, schedule: Q04DX002 (ip), vehicle: saline with Tween-80); 97 % of control (dose: 200.0 mg/kg/injection, schedule: Q04DX002 (ip), vehicle: saline with Tween-80).
With `CC1=CC(=N/Cl)/C=CC/1=N/Cl`, the T/C by setting is: under setting [1], 109 % of control; under setting [2], 111 % of control; (dose: 200.0 mg/kg/injection, schedule: Q01DX005 (ip), vehicle: saline) 114 % of control.
For the compound `Cc1nc(N)c2nonc2n1`, the T/C reads like this: (dose: 25.0 mg/kg/injection, schedule: Q04DX003 (ip), vehicle: suspension in saline) 98 % of control; (dose: 50.0 mg/kg/injection, schedule: Q04DX003 (ip), vehicle: suspension in saline) 103 % of control; (dose: 100.0 mg/kg/injection, schedule: Q04DX003 (ip), vehicle: suspension in saline) 94 % of control; (dose: 200.0 mg/kg/injection, schedule: Q04DX003 (ip), vehicle: suspension in saline) 95 % of control.
In the case of `C/C=C/COCC`, the T/C under setting [3] is 101 % of control, the T/C under setting [4] was 106 % of control and the T/C under setting [5] is 108 % of control.
Take `CN1C(=O)C23CCCCN2CC12CC1(C(=O)Nc4c1ccc1c4OC=CC(C)(C)O1)C(C)(C)C2C3` (stereo not drawn): the T/C is 100 % of control (dose: 0.37 mg/kg/injection, schedule: Q01DX009 (ip), vehicle: Klucel (hydroxypropylcellulose) (HPC)); 102 % of control (dose: 0.75 mg/kg/injection, schedule: Q01DX009 (ip), vehicle: Klucel (hydroxypropylcellulose) (HPC)); 100 % of control (dose: 1.5 mg/kg/injection, schedule: Q01DX009 (ip), vehicle: Klucel (hydroxypropylcellulose) (HPC)); 100 % of control (dose: 3.0 mg/kg/injection, schedule: Q01DX009 (ip), vehicle: Klucel (hydroxypropylcellulose) (HPC)); 96 % of control (dose: 4.5 mg/kg/injection, schedule: Q01DX009 (ip), vehicle: Klucel (hydroxypropylcellulose) (HPC)); 98 % of control (dose: 9.0 mg/kg/injection, schedule: Q01DX009 (ip), vehicle: Klucel (hydroxypropylcellulose) (HPC)). For the same compound, the T/C (dose: 18.0 mg/kg/injection, schedule: Q01DX009 (ip), vehicle: Klucel (hydroxypropylcellulose) (HPC)) was 100 % of control.
As for `CC(O)C1CCNCC1` (stereo not drawn), the T/C under setting [1] is 102 % of control and the T/C under setting [2] is 97 % of control.
As for `CN(C)C1CCCCC1[N+](C)(C)C` (stereo not drawn), the T/C by setting is: (dose: 5.0 mg/kg/injection, schedule: Q01DX009 (ip), vehicle: saline sonified) 100 % of control; (dose: 10.0 mg/kg/injection, schedule: Q01DX009 (ip), vehicle: saline sonified) 95 % of control; (dose: 20.0 mg/kg/injection, schedule: Q01DX009 (ip), vehicle: saline sonified) 90 % of control.
Take `COc1cc2c(c(OC(C)=O)c1OC)-c1ccc(OC)c(=O)cc1[C@@H](NC(C)=O)CC2`: the T/C runs as follows: (dose: 1.25 mg/kg/injection, schedule: Q01DX009 (ip), vehicle: Klucel (hydroxypropylcellulose) (HPC)) 94 % of control; (dose: 2.5 mg/kg/injection, schedule: Q01DX009 (ip), vehicle: Klucel (hydroxypropylcellulose) (HPC)) 92 % of control; (dose: 5.0 mg/kg/injection, schedule: Q01DX009 (ip), vehicle: Klucel (hydroxypropylcellulose) (HPC)) 100 % of control; (dose: 10.0 mg/kg/injection, schedule: Q01DX009 (ip), vehicle: Klucel (hydroxypropylcellulose) (HPC)) 100 % of control; (dose: 20.0 mg/kg/injection, schedule: Q01DX009 (ip), vehicle: Klucel (hydroxypropylcellulose) (HPC)) 109 % of control.
On to `CCCCCCCCCCCCCCC(O)c1ccccc1` (stereo not drawn), for which the T/C runs as follows: (dose: 7.5 mg/kg/injection, schedule: Q01DX009 (ip), vehicle: Klucel (hydroxypropylcellulose) (HPC)) 113 % of control; (dose: 15.0 mg/kg/injection, schedule: Q01DX009 (ip), vehicle: Klucel (hydroxypropylcellulose) (HPC)) 115 % of control; (dose: 30.0 mg/kg/injection, schedule: Q01DX009 (ip), vehicle: Klucel (hydroxypropylcellulose) (HPC)) 110 % of control.
Take `O=C(O)C(=O)O.O=C(O)C(=O)O.[Co+2].[NH-]CCC[NH-]`: the T/C (dose: 12.5 mg/kg/injection, schedule: Q04DX002 (ip), vehicle: saline) was 99 % of control.
For `C1CCC2[N-]CC3CCCCC3[N-]CC3CCCCC3[N-]CC3CCCCC3[N-]CC2C1.[Cu+2].[O-][Cl+3]([O-])([O-])O` (stereo not drawn), the T/C is, setting by setting: (dose: 0.78 mg/kg/injection, schedule: Q01DX009 (ip), vehicle: Klucel (hydroxypropylcellulose) (HPC)) 117 % of control; (dose: 6.25 mg/kg/injection, schedule: Q01DX009 (ip), vehicle: saline with Tween-80) 152 % of control; (dose: 8.0 mg/kg/injection, schedule: Q01DX009 (ip), vehicle: saline with Tween-80) 154 % of control; (dose: 12.5 mg/kg/injection, schedule: Q01DX009 (ip), vehicle: Klucel (hydroxypropylcellulose) (HPC)) 87 % of control; (dose: 12.5 mg/kg/injection, schedule: Q01DX009 (ip), vehicle: saline with Tween-80) 158 % of control; (dose: 25.0 mg/kg/injection, schedule: Q01DX009 (ip), vehicle: Klucel (hydroxypropylcellulose) (HPC)) 87 % of control.
As to `CCCCOc1ncnc2nc[nH]c12`, the T/C was 103 % of control (dose: 50.0 mg/kg/injection, schedule: Q01DX005 (ip), vehicle: Klucel (hydroxypropylcellulose) (HPC)) and 103 % of control (dose: 100.0 mg/kg/injection, schedule: Q01DX005 (ip), vehicle: Klucel (hydroxypropylcellulose) (HPC)).
Take `CC(C)S(=O)(=O)c1s[nH]c(=O)c1-c1ccccc1`: the T/C reads like this: (dose: 50.0 mg/kg/injection, schedule: Q01DX009 (ip), vehicle: Klucel (hydroxypropylcellulose) (HPC)) 109 % of control; (dose: 100.0 mg/kg/injection, schedule: Q01DX009 (ip), vehicle: Klucel (hydroxypropylcellulose) (HPC)) 107 % of control; (dose: 200.0 mg/kg/injection, schedule: Q01DX009 (ip), vehicle: Klucel (hydroxypropylcellulose) (HPC)) 101 % of control.
For `Cc1ncc2c(=O)c3c(ccc4ccccc43)oc2n1`, the T/C is 96 % of control (dose: 50.0 mg/kg/injection, schedule: Q04DX003 (ip), vehicle: saline with Tween-80); 96 % of control under setting [3]; 97 % of control under setting [4]; 103 % of control under setting [5].
For `COC1C(c2cc3ccccc3oc2=O)OC2OC(C)(C)OC21` (stereo not drawn), the T/C reads like this: (dose: 5.0 mg/kg/injection, schedule: Q01DX001 (ip), vehicle: Klucel (hydroxypropylcellulose) (HPC)) 97 % of control; (dose: 10.0 mg/kg/injection, schedule: Q01DX001 (ip), vehicle: Klucel (hydroxypropylcellulose) (HPC)) 101 % of control; (dose: 20.0 mg/kg/injection, schedule: Q01DX001 (ip), vehicle: Klucel (hydroxypropylcellulose) (HPC)) 100 % of control.
As to `CCOC1Oc2ccccc2-c2nc(C)c(C#N)cc21` (stereo not drawn), the T/C is 90 % of control (dose: 60.0 mg/kg/injection, schedule: Q01DX005 (ip), vehicle: saline with Tween-80); 88 % of control (dose: 120.0 mg/kg/injection, schedule: Q01DX005 (ip), vehicle: saline with Tween-80); 90 % of control (dose: 240.0 mg/kg/injection, schedule: Q01DX005 (ip), vehicle: saline with Tween-80).
For the compound `CC(=O)[O][Hg][c]1s[c]([Hg][O]C(C)=O)[c]([Hg][O]C(C)=O)[c]1[Hg][O]C(C)=O`, the T/C was 120 % of control (dose: 3.0 mg/kg/injection, schedule: Q01DX009 (ip), vehicle: saline with Tween-80); 109 % of control (dose: 4.0 mg/kg/injection, schedule: Q01DX009 (ip), vehicle: saline with Tween-80); 104 % of control (dose: 6.0 mg/kg/injection, schedule: Q01DX009 (ip), vehicle: saline with Tween-80); 90 % of control (dose: 9.0 mg/kg/injection, schedule: Q01DX009 (ip), vehicle: saline with Tween-80).
Regarding `Nc1cc(-c2ccc(Cl)cc2)nn1-c1nnc(-c2ccccc2)c(-c2ccccc2)n1`, the T/C by setting is: (dose: 50.0 mg/kg/injection, schedule: Q01DX005 (ip), vehicle: saline with Tween-80) 93 % of control; (dose: 100.0 mg/kg/injection, schedule: Q01DX005 (ip), vehicle: saline with Tween-80) 100 % of control; (dose: 200.0 mg/kg/injection, schedule: Q01DX005 (ip), vehicle: saline with Tween-80) 103 % of control.
